Test: xn = mol fraction of the nth substance listed

CCCCN + CCCCO
Conditions	viscosity [mPa·s]
293.15 K, 101 kPa, x1 = 0.1	2.51
293.15 K, 101 kPa, x1 = 0.3	1.85
293.15 K, 101 kPa, x1 = 0.5	1.25
293.15 K, 101 kPa, x1 = 0.7	0.95
293.15 K, 101 kPa, x1 = 0.9	0.68
298.15 K, 100 kPa, x2 = 0.099	0.553
298.15 K, 100 kPa, x2 = 0.195	0.663
298.15 K, 100 kPa, x2 = 0.294	0.794
298.15 K, 100 kPa, x2 = 0.401	0.951
298.15 K, 100 kPa, x2 = 0.493	1.101
298.15 K, 100 kPa, x2 = 0.6	1.312
298.15 K, 100 kPa, x2 = 0.695	1.531
298.15 K, 100 kPa, x2 = 0.8	1.818
298.15 K, 100 kPa, x2 = 0.893	2.131
298.15 K, 101.32 kPa, x2 = 0.0983	0.5497
298.15 K, 101.32 kPa, x2 = 0.1986	0.6488
298.15 K, 101.32 kPa, x2 = 0.2972	0.7685
298.15 K, 101.32 kPa, x2 = 0.4004	0.9222
298.15 K, 101.32 kPa, x2 = 0.4976	1.085
298.15 K, 101.32 kPa, x2 = 0.5988	1.291
298.15 K, 101.32 kPa, x2 = 0.7009	1.518
298.15 K, 101.32 kPa, x2 = 0.7974	1.782
298.15 K, 101.32 kPa, x2 = 0.899	2.123
303.15 K, 101 kPa, x1 = 0.01068	2.228
303.15 K, 101 kPa, x1 = 0.02055	2.205
303.15 K, 101 kPa, x1 = 0.0277	2.185
303.15 K, 101 kPa, x1 = 0.04127	2.155
303.15 K, 101 kPa, x1 = 0.05004	2.135
303.15 K, 101 kPa, x1 = 0.05896	2.116
303.15 K, 101 kPa, x1 = 0.07244	2.087
303.15 K, 101 kPa, x1 = 0.08331	2.059
303.15 K, 101 kPa, x1 = 0.09019	2.04
303.15 K, 101.33 kPa, x1 = 0.092	2.08
303.15 K, 101.33 kPa, x1 = 0.1008	1.909
303.15 K, 101.33 kPa, x1 = 0.1886	1.829
303.15 K, 101.33 kPa, x1 = 0.2007	1.627
303.15 K, 101.33 kPa, x1 = 0.2824	1.565
303.15 K, 101.33 kPa, x1 = 0.3004	1.395
303.15 K, 101.33 kPa, x1 = 0.3824	1.314
303.15 K, 101.33 kPa, x1 = 0.4	1.191
303.15 K, 101.33 kPa, x1 = 0.5009	1.019
303.15 K, 101.33 kPa, x1 = 0.5186	1.036
303.15 K, 101.33 kPa, x1 = 0.6001	0.869
303.15 K, 101.33 kPa, x1 = 0.6186	0.8627
303.15 K, 101.33 kPa, x1 = 0.6997	0.734
303.15 K, 101.33 kPa, x1 = 0.7158	0.7221
303.15 K, 101.33 kPa, x1 = 0.7999	0.625
303.15 K, 101.33 kPa, x1 = 0.8131	0.6087
303.15 K, 101.33 kPa, x1 = 0.9001	0.536
303.15 K, 101.33 kPa, x1 = 0.9011	0.5224
313.15 K, 101.3 kPa, x2 = 0.0992	0.4434
313.15 K, 101.3 kPa, x2 = 0.1967	0.516
313.15 K, 101.3 kPa, x2 = 0.2981	0.602
313.15 K, 101.3 kPa, x2 = 0.398	0.7038
313.15 K, 101.3 kPa, x2 = 0.4956	0.8181
313.15 K, 101.3 kPa, x2 = 0.5979	0.9549
313.15 K, 101.3 kPa, x2 = 0.6978	1.108
313.15 K, 101.3 kPa, x2 = 0.8009	1.289
313.15 K, 101.3 kPa, x2 = 0.9	1.503
313.15 K, 101.33 kPa, x1 = 0.092	1.662
313.15 K, 101.33 kPa, x1 = 0.1008	1.518
313.15 K, 101.33 kPa, x1 = 0.1886	1.476
313.15 K, 101.33 kPa, x1 = 0.2007	1.305
313.15 K, 101.33 kPa, x1 = 0.2824	1.286
313.15 K, 101.33 kPa, x1 = 0.3004	1.12
313.15 K, 101.33 kPa, x1 = 0.3824	1.086
313.15 K, 101.33 kPa, x1 = 0.4	0.976
313.15 K, 101.33 kPa, x1 = 0.5009	0.843
313.15 K, 101.33 kPa, x1 = 0.5186	0.856
313.15 K, 101.33 kPa, x1 = 0.6001	0.73
313.15 K, 101.33 kPa, x1 = 0.6186	0.7186
313.15 K, 101.33 kPa, x1 = 0.6997	0.622
313.15 K, 101.33 kPa, x1 = 0.7158	0.6085
313.15 K, 101.33 kPa, x1 = 0.7999	0.539
313.15 K, 101.33 kPa, x1 = 0.8131	0.5227
313.15 K, 101.33 kPa, x1 = 0.9001	0.47
313.15 K, 101.33 kPa, x1 = 0.9011	0.4542
323.15 K, 101.33 kPa, x1 = 0.1008	1.228
323.15 K, 101.33 kPa, x1 = 0.2007	1.065
323.15 K, 101.33 kPa, x1 = 0.3004	0.92
323.15 K, 101.33 kPa, x1 = 0.4	0.803
323.15 K, 101.33 kPa, x1 = 0.5009	0.7
323.15 K, 101.33 kPa, x1 = 0.6001	0.615
323.15 K, 101.33 kPa, x1 = 0.6997	0.534
323.15 K, 101.33 kPa, x1 = 0.7999	0.467
323.15 K, 101.33 kPa, x1 = 0.9001	0.407

Reference: the CheMixHub viscosity set
